Patent publication US10898436B2, “Nanoparticle compositions for generation of regulatory T cells and treatment of autoimmune diseases and other chronic inflammatory conditions” (Topas Therapeutics GmbH, priority 2011, dated 2021)
No end group written: not given here.

Legend:
[1] = Organ uptake by dynamic magnetic resonance imaging; format: in vivo, mice; details: FIG. 7C
Protocol: (§1) FIG. 7: Targeted delivery of MBP peptides to LSEC with nanoparticles. A) Plasma clearance rates of MBP peptide coupled to ^59Fe-NP (MBP-^59Fe-NP) and ^14C-MBP peptide coupled to unlabeled NP(^14C-MBP-NP). B) Organ distribution of MBP-^59Fe-NP and ^14C-MBP-NP 60 min after intravenous injection. Mean values±s.e.m. are shown (n=4). C) Representative coronal and transversal MR images of mice pre and post injection of unloaded NP or MBP-NP. D) Intravital confocal microscopy of the liver showing uptake of MBP-NP or unloaded NP by LSEC. Nuclei were also stained. right panel: LSEC (FITC-dextran), left panel: quantum dot-labeled NP; scale bar: 20 μm. E) Electron microscopy of liver, 60 min after intravenous injection of MBP-NP or unloaded NP.
(§2) To develop a method for selective delivery of autoantigen to LSEC in vivo, the inventors made use of nanoparticles (NP) that are rapidly cleared from the circulation through uptake by liver cells. Specifically, the inventors took advantage of a polymer-coated nanoparticle (43), which they observed to accumulate selectively in liver sinusoidal endothelium (data not shown). […] Low amounts of radioactivity could be detected in spleen and kidney, whereas uptake into other organs was negligible. […]

[2] = tested on: EAE in tg4 mice; assay: Prevention of MBP-induced EAE in tg4 mice; format: in vivo; details: single injection one day after EAE-induction, tg4 mice (FIG. 8B)
Protocol: (§3) FIG. 8: Nanoparticle-based delivery of neuroantigen peptides to LSEC prevents EAE induction. EAE was induced in B10.PL wildtype mice (A, E) or tg4 mice (B) by immunization to MBP. In C57BL/6 wildtype mice (C) or hCD2-ΔkTβRII mice (D), EAE was induced by immunization to MOG. One day after EAE induction, mice were injected once intravenously with PBS (A-E) or neuroantigen peptide-loaded nanoparticles (MBP-NP (A, B, E) or MOG-NP (C, D,). As control, mice received equivalent amounts of unloaded NP (A, C) or unconjugated MBP peptide (B,). E, Twice per week, mice treated with MBP-NP were intraperitoneally injected with Treg-depleting PC61 antibody (MBP-NP/Treg-depleted) or isotype-matched control antibody (MBP-NP). Shown are mean EAE scores±s.e.m. (n=5-7).
(§4) The proposed immunosuppressive effect of MBP-nanoparticles in vivo was first tested in MBP-induced EAE in B10.PL mice (FIG. 8A). […] To confirm the efficacy of the inventive treatment approach in another independent disease model, the effect of nanoparticles loaded with myelin oligodendrocyte glycoprotein (MOG) peptides on the development of MOG-induced EAE was tested in C57BL/6 mice.

[3] = tested on: MBP-induced EAE in B10.PL mice; assay: Prevention of MBP-induced EAE in B10.PL mice; format: in vivo; details: single intravenous injection one day after EAE-induction, B10.PL mice (FIG. 8A)
Protocol: as §3, §4

[4] = tested on: experimental autoimmune encephalomyelitis (EAE) in B10.PL mice; assay: Treatment of EAE with autoantigen-loaded nanoparticles (Example 4); format: in vivo; details: injected into B10.PL mice one day after EAE induction by Ac1-9 MBP peptide (FIG. 5)
Protocol: For covalent conjugation of neuroantigen peptide (encephalitogenic Ac1-9 peptide derived from the amino acid sequence of myelin basic protein), iron oxide-core nanoparticles were synthesized as described in example 3 and adjusted to a concentration of 6 μmol/L in 50 mM SBB-buffer (pH=9). An equal amount of 1-Ethyl-3-(3-dimethylaminopropyl)carbodiimide (c=[…]), dissolved in a 50 mM SBB-buffer (pH=9), was added. After 5 minutes, a 1000-fold excess of the neuroantigen peptide was added and the solution was incubated under rotation for 2h at room temperature and then overnight at 4° C. On the next day, the solution was filtered under centrifugal force in a filter device (100 kDa, 2500 g, 4° C.) and the remnant resuspended in PBS. This procedure was repeated 20 times to remove all excess peptide. The obtained peptide-particle conjugates were dissolved in PBS and subjected to size-exclusion-chromatography to assure for the absence of free peptide. Then, the iron content was measured to determine the concentration of the peptide-particle suspension.
Results: The thus obtained peptide-loaded nanoparticles or, as control, unconjugated peptide-free nanoparticles were then injected into B10.PL mice (n=6), one day after induction of experimental autoimmune encephalomyelitis (EAE) by immunization to Ac1-9 myelin basic protein peptide (25).

[5] = tested on: MBP-induced EAE in B10.PL mice; assay: MBP-induced EAE in B10.PL mice with Treg depletion by PC61 antibody; format: in vivo
Protocol: as §3
FIG. 13: Depletion of CD25+Foxp3+CD4+ Treg in vivo by repeated PC61 antibody-administration. B10.PL mice were immunized to MBP peptide and treated on the next day with PBS (n=7) or MBP peptide-coupled nanoparticles (MBP-NP). Mice, which received MBP-NP, were then either treated twice per week with Treg-depleting PC61 antibody (n=5) or non-depleting isotype-matched control antibody (n=6). Mice were sacrificed on day 29 post immunization and spleens were analyzed for Treg depletion efficiency by flow cytometry. Results are depicted as mean % of CD25+Foxp3+of CD4+ T cells±s.e.m. (PBS 17.16±0.3422; MBP-NP+isotype 15.08±0.8594; MBP-NP+PC61 3.160±0.4643; P<0.001). For comparison of multiple groups, one-way ANOVA and Tukey's post test were performed.
As the inventors have shown above that tolerance induction by LSEC required TGFβ signaling to T cells, they reasoned that nanoparticle-based targeting of autoantigen peptides to LSEC should be ineffective in mice with TGFβ-insensitive T cells. […] Thus, it can be concluded that also in vivo, the efficacy of nanoparticle-mediated tolerance induction is dependent on TGFβ signaling to T cells. […]

[6] = tested on: Splenic CD4+Foxp3− T cells from tg4×Foxp3gfp.KI mice; assay: Treg conversion by LSEC in vitro with nanoparticle-conjugated or free MBP peptide; format: cell-based; details: co-culture with LSEC, TGFβ 2 ng/ml, MBP peptide 5 ng/ml or equivalent dose, four days, flow cytometry (FIG. 11); in % (unit assumed)
Protocol: FIG. 11: Efficient Treg conversion by LSEC in vitro using nanoparticle-conjugated MBP peptide or free MBP peptide. Splenic CD4+Foxp3− T cells from tg4×Foxp3gfp.KI mice were co-cultured with LSEC in the presence of TGFβ (2 ng/ml) and free MBP peptide (5 ng/ml) or an equivalent dose of MBP peptide coupled to nanoparticles (MBP-NP) for four days. Foxp3 induction in CD4+ T cells was then analyzed by flow cytometry. For statistical analysis, Mann-Whitney test was performed (free MBP: 32.16±1.075; MBP-NP: 29.63±1.558; P=0.2857). n.s.=not significant.
(§5) To further investigate the cellular tropism of administered peptide-nanoparticle conjugates, conventional as well as intravital confocal fluorescence microscopy of the liver was performed, using nanoparticles with a fluorescent quantum dot core (44). Prior to administration of fluorescent MBP peptide-nanoparticle conjugates, recipient mice were injected with FITC-dextran that is rapidly absorbed by LSEC. […] To confirm that delivered peptide can be presented to T cells, Treg conversion in vitro by LSEC in the presence of free MBP peptide or of MBP peptide bound to nanoparticles (MBP-NP) was studied.

[7] = tested on: LSEC; assay: Cellular tropism of peptide-nanoparticle conjugates in liver (intravital confocal microscopy, electron microscopy); format: in vivo, mice
Protocol: as §1, §5

[8] = Zeta potential measurement (Malvern Zetasizer Nano-ZS); format: physicochemical; details: 20° C.
Protocol: FIG. 12: Characteristics of NP and MBP-NP. A) The Zeta potentials of NP and MBP-NP were measured at 20° C. using a Malvern Zetasizer Nano-ZS instrument. […] No differences in size could be detected by B) size exclusion chromatography (MBP-NP: left line; NP: right line) or C) by transmission electron microscopy. For electron microscopy, samples were stained with 1% sodium silicotungstate, pH 7, so that the organic shell appears light and the iron oxide core dark.

[9] = parameters: species or system mice; details: mouse, in vivo, iv
Protocol: as §1, §2

[10] = tested on: CD4+CD25− T cells; assay: Generation of Treg cells from CD4+CD25− non-regulatory T cells by antigen presenting cells; format: cell-based, mouse
Protocol: Mouse liver non-parenchymal cells were isolated applying a protocol modified from (28). Briefly, mouse livers were perfused with 0.05% collagenase IV (Sigma; Taufkirchen, Germany) in Gey's balanced salt solution, mechanically dissected and further digested in 0.05% collagenase IV in Gey's balanced salt solution for 25 minutes at 37° C. at constant rotation (240 rpm). Hepatocytes and debris were sedimented twice at 40 g and non-parenchymal cells were recovered by centrifugation over a 17% Optiprep (Sigma) gradient at 400 g.
Liver sinusoidal endothelial cells (LSEC) were purified from the non-parenchymal cells as described (29) by magnetic sorting with the ME-9F1 antibody (Miltenyi Biotech, Bergisch-Gladbach, Germany). LSEC were seeded on collagen-coated culture plates (Serva, Heidelberg, Germany). After overnight culture in Iscove's modified Dulbecco's medium supplemented with 5% FCS, non-adherent cells were removed by medium change. Accordingly, Kupffer cells were purified from the non-parenchymal cells by magnetic sorting with biotinylated F4/80 antibody (eBioscience, Frankfurt, Germany) and anti-biotin microbeads (Miltenyi).
Alternatively, hepatocytes were isolated from mouse livers as described (30); and dendritic cells were isolated from mouse spleen by magnetic cell separation for CD11c as described (30).
10^5 LSEC, 10^5 Kupffer cells, or 5×10^3 hepatocytes were seeded into 96-well plates, and used on the following day for stimulation of CD4+CD25− T cells. Alternatively, 5×10^4 dendritic cells, were seeded into 96-well plates, and used on the same day for stimulation of CD4+CD25− T cells. These CD4+CD25− non-regulatory T cells were isolated from mouse spleens by magnetic cell separation, and 5×10^5 purified lymphocytes per well were then stimulated on the indicated antigen presenting cells in serum-free medium (Pan Biotech, Aidenbach, Germany) with solute antibody to CD3 (BD Bioscience, Heidelberg, Germany). After four days of culture, the T cells were harvested and analysed by flow cytometry for the percentage of CD4+CD25+FOXP3+ Treg cells. […]

## MBP-NP: Ac1-9 myelin basic protein peptide covalently conjugated by carbodiimide to polymer-coated iron oxide-core nanoparticles (Ac-MGNHSGKRE; also: carbodiimide-conjugated to polymer-coated iron oxide nanoparticles; UniProt P04370 1-9, looked up, fragment)
[1]
  organ uptake by dynamic magnetic resonance imaging: only hepatic targeting
[2]
  clinical EAE: protected from disease
[3]
  clinical EAE: lasting and almost complete protection from clinical EAE
[4]
  protection from clinical EAE: complete protection from clinical EAE
[5]; Treg-depleted mice (repeated PC61 antibody) (FIG. 8E)
  protection from EAE: could not prevent the development of disease
[5]; control mice (isotype-matched control antibody) (FIG. 8E)
  protection from EAE: induced protection from EAE
[5]; spleens, day 29 post immunization, flow cytometry, B10.PL mice (FIG. 13)
  mean % of CD25+Foxp3+of CD4+ T cells±s.e.m.: 15.08±0.8594%
[6]
  Foxp3 induction in CD4+ T cells: 29.63±1.558
[7]; 60 min after intravenous injection (FIG. 7E)
  uptake by LSEC by transmission electron microscopy: sizeable internalization
[7]; quantum dot core, intravenous injection, FITC-dextran stained LSEC (FIG. 7D)
  localisation in liver by intravital confocal fluorescence microscopy: co-localized with FITC-dextran stained LSEC
[8]
  averaged Zeta-potential: −61.6 mV

## MBP-^59Fe-NP: 59Fe-radiolabeled nanoparticles conjugated to non-labeled MBP peptide (MGNHSGKRE; also: conjugated to 59Fe-labelled nanoparticles; UniProt P04370 1-9, looked up, fragment)
[9]
  plasma clearance kinetics of radiolabel: cleared with similar kinetics

## free MBP peptide: encephalitogenic Ac1-9 peptide derived from the amino acid sequence of myelin basic protein, not coupled (Ac-MGNHSGKRE; UniProt P04370 1-9, looked up, fragment) [reference compound]
[2]
  clinical EAE: developed severe EAE
[6]
  Foxp3 induction in CD4+ T cells: 32.16±1.075

## TGFβ: exogenous cytokine added to some stimulation cultures
[10]; LSEC-stimulated T cells, in the presence of TGFβ, four days of culture
  percentage of CD4+CD25+FOXP3+ Treg cells among stimulated T cells: 38%
[10]; dendritic cell-stimulated T cells, in the presence of exogenous TGFβ, four days of culture
  percentage of CD4+CD25+FOXP3+ Treg cells among stimulated T cells: 7.5%
[10]; liver cell-stimulated T cells (LSEC, Kupffer cells and hepatocytes), in the presence of exogenous TGFβ
  percentage of CD4+CD25+FOXP3+ Treg cells among stimulated T cells: at least 20%

## ^14C-MBP-NP: 14C-radiolabeled MBP peptide coupled to unlabeled NP (MGNHSGKRE; also: 14C label, nanoparticle conjugate; UniProt P04370 1-9, looked up, fragment)
[9]
  plasma clearance kinetics of radiolabel: cleared with similar kinetics
